The values below come from patent publication US20240327429A1, “[1,3]Thiazolo[4,5-d]-pyrimidon-7-ones as inhibitors of NOX4” (Boehringer Ingelheim International GmbH, priority 2023, published 2024).

The target of series [1] is T1, human NOX4 (hNOX4) (Homo sapiens, UniProt Q9NPH5).
T1 sequence (Q9NPH5 1-578): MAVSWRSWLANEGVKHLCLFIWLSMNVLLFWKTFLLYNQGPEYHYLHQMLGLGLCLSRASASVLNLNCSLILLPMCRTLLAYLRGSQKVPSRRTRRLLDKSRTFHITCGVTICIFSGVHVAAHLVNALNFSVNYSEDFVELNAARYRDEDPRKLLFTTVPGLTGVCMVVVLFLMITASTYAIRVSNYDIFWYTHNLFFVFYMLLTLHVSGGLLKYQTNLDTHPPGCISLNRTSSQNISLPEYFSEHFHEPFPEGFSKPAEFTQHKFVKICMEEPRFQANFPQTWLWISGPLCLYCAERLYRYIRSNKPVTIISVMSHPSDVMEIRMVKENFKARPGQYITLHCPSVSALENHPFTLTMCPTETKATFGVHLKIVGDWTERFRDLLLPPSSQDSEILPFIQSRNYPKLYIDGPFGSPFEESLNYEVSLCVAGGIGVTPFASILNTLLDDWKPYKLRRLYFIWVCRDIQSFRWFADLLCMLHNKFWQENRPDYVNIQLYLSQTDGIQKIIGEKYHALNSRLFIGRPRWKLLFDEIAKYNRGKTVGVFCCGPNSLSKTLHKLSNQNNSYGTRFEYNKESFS
T1 sequence (P13498 2-195 partner limits assumed): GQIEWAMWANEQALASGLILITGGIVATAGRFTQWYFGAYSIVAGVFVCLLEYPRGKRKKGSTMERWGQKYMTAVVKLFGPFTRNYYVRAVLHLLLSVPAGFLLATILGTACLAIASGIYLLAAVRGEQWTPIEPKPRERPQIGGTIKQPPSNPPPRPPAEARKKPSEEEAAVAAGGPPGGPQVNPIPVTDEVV
The experiment in a line: cell-based.
Experimental: The synthetic gene phNOX4_DNA3_1_Zeo (Accession: AAF68973) is assembled from synthetic oligonucleotides and/or PCR products. The fragment is cloned into pcDNA3.1_Zeo_A011 using NheI and XhoI cloning sites. The plasmid DNA is purified from transformed bacteria and its concentration is determined by UV spectroscopy. The final construct is verified by sequencing. The plasmid is transfected via electroporation (Amaxa electroporation device) in combination with Nucleofector Kit V. Selection of NOX4 overexpressing genes is achieved using selection antibiotic Zeocin.
The inhibitory activity of the example compounds of the invention is determined using the following procedure:
Cells are cultured in the Dulbecco's Modified Eagle Medium (DMEM) media containing 4.5 g/L glucose supplemented with 10% fetal calf serum and 250 μg/ml Zeocin in an incubator at 37° C. with 5% CO2. For the assay, cells are seeded in 384 well plates.
After incubation Lumigen HyPerBlu™ is added and cells are incubated for additional 30 min at 24° C. in a humidified incubator. Next, luminescence is measured using an Envision Multimode Plate reader to determine levels of produced H2O2 in the wells.

Series [2] relates to human hepatocytes. The experiment in a line: Evaluation of hepatocyte clearance (metabolic stability). It is filed as in vitro ADME. The following applies: % of hepatic blood flow. Here is the method: The metabolic degradation of the test compound is assayed in a hepatocyte suspension. Hepatocytes (cryopreserved) are incubated in Dulbecco's modified eagle medium (supplemented with […] glucagon/500 mL, 2.5 mg insulin/500 mL and 3.75 mg/500 mL hydrocortisone) containing 5% human serum.
Following a 30 min preincubation in an incubator (37° C., 10% CO2) 5 μl of test compound solution (80 μM; from 2 mM in DMSO stock solution diluted 1:25 with medium) are added into 395 μl hepatocyte suspension (cell density in the range 0.25-5 Mio cells/mL, typically 1 Mio cells/mL; final concentration of test compound 1 μM, final DMSO concentration 0.05%).
The cells are incubated for six hours (incubator, orbital shaker) and samples (25 μl) are taken at 0, 0.5, 1, 2, 4 and 6 hours. Samples are transferred into acetonitrile and pelleted by centrifugation (5 min). The supernatant is transferred to a new 96-deepwell plate, evaporated under nitrogen and resuspended.
Decline of Parent Compound is Analyzed by HPLC-MS/MS.
CLint is Calculated as Follows:
CL_[…]=Dose/AUC=(C0/CD)/(AUD+clast/k)×1000/60. • C0: initial concentration in the incubation [μM], CD: cell density of vital cells [10^6 cells/mL], AUD: area under the data [μM×h], clast: concentration of last data point [μM], • k: slope of the regression line for parent decline [h-1].
The calculated in vitro hepatic intrinsic clearance can be scaled up to the intrinsic in vivo hepatic clearance and used to predict hepatic in vivo blood clearance (CL) by the use of a liver model (well stirred model).
CL_[…]_INVIVO[ml/min/kg]=(CL_[…][μL/min/10^6 cells]×hepatocellularity[10^6 cells/g liver]×liver factor[g/kg bodyweight])/1000
CL[ml/min/kg]=CL_[…]_INVIVO[ml/min/kg]×hepatic blood flow[ml/min/kg]/(CL_[…]_INVIVO[ml/min/kg]+hepatic blood flow[ml/min/kg])

Series [3] has as its target T2, human NOX1 (hNOX1) (Homo sapiens, UniProt Q9Y5S8).
T2 construct: pLV-CMV-hNOX1-puro (NM_007052.5); host or cells: HEK293 (CLS GmbH), lentiviral transduction
T2 sequence (Q9Y5S8 1-564): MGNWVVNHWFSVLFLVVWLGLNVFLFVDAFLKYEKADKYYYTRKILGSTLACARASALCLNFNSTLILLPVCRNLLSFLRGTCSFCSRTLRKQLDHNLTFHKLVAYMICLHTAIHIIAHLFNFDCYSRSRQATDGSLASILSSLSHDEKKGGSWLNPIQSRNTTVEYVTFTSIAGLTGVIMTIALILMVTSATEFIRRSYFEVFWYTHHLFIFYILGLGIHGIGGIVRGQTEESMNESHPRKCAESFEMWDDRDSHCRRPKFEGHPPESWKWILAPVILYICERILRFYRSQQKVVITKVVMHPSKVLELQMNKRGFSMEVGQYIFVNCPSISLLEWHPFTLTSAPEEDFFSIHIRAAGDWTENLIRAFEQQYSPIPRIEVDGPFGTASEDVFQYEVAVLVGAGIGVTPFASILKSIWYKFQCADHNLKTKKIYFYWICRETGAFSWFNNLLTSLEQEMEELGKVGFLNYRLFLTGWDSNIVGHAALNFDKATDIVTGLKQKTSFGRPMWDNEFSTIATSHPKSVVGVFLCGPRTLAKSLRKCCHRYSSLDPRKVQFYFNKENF
T2 sequence (P13498 2-195 partner limits assumed): T1 sequence (P13498 2-195 partner limits assumed)
The experiment in a line: NOX1 inhibition assay (L-012), HEK293 cells stably overexpressing human NOX1. It is filed as cell-based. The following applies: HEK293-hNOX1, PMA stimulated. The source says:
Plasmids are Purchased from Vectorbuilder. • for HEK-hNOX1 all necessary subunits are cloned accordingly: • pLV-CMV-hNOX1-puro (NM_007052.5) • pLV-CMV-hNOXO1-blas (NM_172168.3) • pLV-CMV-hp22phox-hygro (NM_000101.4) • pLV-CMV-hNOXA1-neo (NM_006647.2) • for HEK-hNOX3 • pLV-CMV-hNOX3-puro (NM_015718.3)
3rd generation lentiviral particles are produced in HEK293 suspension cells by transient transfection of three helper and expression plasmids. Crucial lentivirus supernatants are harvested, clarified by filtration and concentrated by precipitation. Lentivirus titers are determined in transducing units in (TU/mL) by transduction of HT1080 cells and colony forming assay. Parental HEK293 cells, purchased from CLS GmbH, are transduced with replication-incompetent 3rd generation lentiviral particles (MOI 2) and expanded for at least 2 weeks before cryopreservation of tested lots. During cultivation, medium is changed three times per week and cells are sub-cultured at least once per week. Selection antibiotics are added according to the plasmids (1 μg/ml puromycin, 1.5 μg/ml blasticidin, 200 μg/ml G418 and 100 μg/ml hygromycin).
Evaluation of the NOX4 inhibitors on NOX1 activity is assessed in HEK293 cells stably overexpressing human NOX1 (hNOX1).
Lastly, 8-amino-5-chloro-2,3-dihydro-7-phenyl-pyrido[3,4-d]pyridazine-1,4-dione sodium salt (L-012, CAS 143556-24-5) is added at 400 μM to all wells, and cells are incubated in an incubator for an additional 3 h. Afterwards luminescence is measured with a SpectraMax Paradigm Microplate Reader.

Series [4] has as its target T3, NOX4 (Homo sapiens, UniProt Q9NPH5).
T3 construct: host or cells: modified HEK cells
T3 sequence (Q9NPH5 1-578): T1 sequence (Q9NPH5 1-578)
T3 sequence (P13498 2-195 partner limits assumed): T1 sequence (P13498 2-195 partner limits assumed)
The following applies: modified HEK cells, Amplex Red; read-out: NOX4 IC50 [μM] as disclosed in WO2016207785; cited from earlier work.

Where “and” joins values, the source holds several entries; their conditions need not be identical. Equal values may be shown once. Some results are limits rather than exact numbers.

As usually defined, the IC50 is the concentration needed to halve the response being measured.

In series [1], `Cc1cc(F)ccc1CSc1nc2ncsc2c(=O)n1-c1cccnc1` [reference compound] gave an IC50 of 8120 nM. On the same count and under the same terms, for `O=c1c2scnc2nc(SCc2c(F)cc(F)cc2F)n1-c1cncc(F)c1` [reference compound] the value was 1650 nM. On to `O=c1c2scnc2nc(SCc2cccc(F)c2)n1-c1ccc(O)cc1` [Example 1, 5-((3-Fluorobenzyl)thio)-6-(4-hydroxyphenyl)thiazolo[4,5-d]pyrimidin-7(6H)-one], for which the IC50 is 560 nM and 555 nM in series [1]; over 100 µM in series [3]; 0.34 µM in series [4]. Moreover, in series [2], the “clearance in human hepatocytes” value is given as 52 % QH.

In the case of `O=C(Nc1ccc2oc(N3CCC34COC4)nc2c1)c1ccc2c(c1)CCO2` [Example 15 of WO2016207785], the “clearance in human hepatocytes” value in series [2] was 29 % QH. The molecule `O=c1c2scnc2nc(SCc2ccc(Cl)cc2)n1-c1cccnc1` [reference compound] showed an IC50 in series [1] of 5450 nM.

On to `O=C(Nc1ccc2c(c1)CCO2)c1ccc2oc(N3CCC34COC4)nc2c1` [Example 80], for which the “clearance in human hepatocytes” value in series [2] is 46 % QH.
